Earlier results on one molecule are cited in patent US20060257475A1, “Stable Sertraline Hydrochloride Formulation and Method” (Boehringer Ingelheim International GmbH, priority 2006, published 2006).

For series [1] the following is noted: reported in U.S. Pat. No. 5,734,083.
For series [2] the following is noted: reported in U.S. Pat. No. 5,248,699.

`CN[C@H]1CC[C@@H](c2ccc(Cl)c(Cl)c2)c2ccccc21` [Form I, (1S-cis)-4-(3,4-Dichlorophenyl)-1,2,3,4-tetrahydro-N-methyl-1-napththalenamine]: the Solubility entry in series [1] is recorded as “extremely insoluble”. In addition, in series [2], the “Stability among Forms I to V” value is “greatest stability of these five forms”. Moreover, the “Thermodynamic stability relative to other crystalline forms” value in series [2] (room temperature) was “more thermodynamically stable than Forms II, III, IV, and V”.
